Reference: patent US5922891A, “2-substituted 1,8-dihydroxy-9(10H)-anthracenone pharmaceuticals” (priority 1997, dated 1999)
pIC50: −log10 of the molar value.

Experiments:
5-LO in bovine PMNL = biological target: T1, 5-LO in bovine PMNL (Bos taurus, UniProt F1MQ78); assay: Inhibition of 5-lipoxygenase (5-HETE and LTB4 biosynthesis) in Ca-ionophore-stimulated bovine PMNL; assay type: cell-based; conditions: N = 3 or more
T1 construct: The purified PMNLs were suspended at a concentration of; endogenous in cells; host or cells: polymorphonuclear leukocytes isolated from bovine blood
T1 sequence (F1MQ78 1-674): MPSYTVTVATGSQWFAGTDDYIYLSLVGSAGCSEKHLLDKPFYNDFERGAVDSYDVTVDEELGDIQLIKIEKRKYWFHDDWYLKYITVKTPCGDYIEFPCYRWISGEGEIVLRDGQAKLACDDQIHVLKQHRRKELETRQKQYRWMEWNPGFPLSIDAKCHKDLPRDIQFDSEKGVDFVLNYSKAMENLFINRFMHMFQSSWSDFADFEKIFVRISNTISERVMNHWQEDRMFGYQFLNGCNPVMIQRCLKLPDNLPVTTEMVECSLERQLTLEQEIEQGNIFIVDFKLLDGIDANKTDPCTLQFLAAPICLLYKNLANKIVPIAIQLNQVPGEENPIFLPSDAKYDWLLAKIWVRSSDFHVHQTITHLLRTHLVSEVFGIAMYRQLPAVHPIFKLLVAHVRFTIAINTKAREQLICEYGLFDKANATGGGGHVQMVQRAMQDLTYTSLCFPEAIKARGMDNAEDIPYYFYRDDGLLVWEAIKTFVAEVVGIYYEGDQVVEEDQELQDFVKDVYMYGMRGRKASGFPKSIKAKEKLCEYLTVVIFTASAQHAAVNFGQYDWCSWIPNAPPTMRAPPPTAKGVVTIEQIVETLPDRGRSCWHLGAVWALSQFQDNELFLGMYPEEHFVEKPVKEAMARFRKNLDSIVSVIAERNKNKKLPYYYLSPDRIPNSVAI

[1] = Deoxyribose degradation as a measure of hydroxyl radical formation; assay type: biochemical; conditions: 75 μM test compound; controls < 0.1

Compound	pIC50 (5-LO in bovine PMNL)	DD (deoxyribose degradation, malondialdehyde released) [1]
COC(=O)CCCCc1ccc2c(c1O)C(=O)c1c(O)cccc1C2 [IVB, Methyl 5-(9,10-Dihydro-1,8-dihydroxy-9-oxo-2-anthracene)pentanoate]	< 4.52	0.62 ± 0.03 μmol of MDA/mmol
COC(=O)CCCCCc1ccc2c(c1O)C(=O)c1c(O)cccc1C2 [VB, Methyl 6-(9,10-Dihydro-1,8-dihydroxy-9-oxo-2-anthracene) hexaonate]	< 4.52	0.13 ± 0.02 μmol of MDA/mmol
CC(C(=O)N(C)O)c1ccc2c(c1O)C(=O)c1c(O)cccc1C2 (centres unmarked) [VIID, N-Hydroxy-N-methyl-2-(9,10-dihydro-1,8-dihydroxy-9-oxo-2-anthracene)propionamide]	5.40	1.57 ± 0.16 μmol of MDA/mmol
COC(=O)C(c1ccc2c(c1O)C(=O)c1c(O)cccc1C2)C(C)C (centres unmarked) [VIIIB, Methyl 2-(9,10-Dihydro-1,8-dihydroxy-9-oxo-2-anthracene)-3-methylbutanoate]	< 4.52	0.54 ± 0.01 μmol of MDA/mmol
